Columns and labels:
[1] = test system: Homo sapiens; experiment: AUC (0 to infinity) in healthy human plasma assessed as hydroxybupropion level at 150 mg, po co-treated with ritonavir 200 mg tid for 1 day, 300 mg bid for next 2 days measured after 48 hrs; format: ADME, organism-based; parameters: dose 150 mg, time infinity, route oral; conditions: in vivo
[2] = Apparent clearance with respect to oral bioavailability in human at 150 mg, po co-treated with ritonavir 200 mg tid for 1 day, 300 mg bid for next 2 days measured after 48 hrs; format: ADME, organism-based; conditions: in vivo
[3] = test system: Homo sapiens; experiment: AUC (0 to infinity) in healthy human plasma assessed as (S,S)-hydroxybupropion level at 150 mg, po co-treated with ritonavir 200 mg tid for 1 day, 300 mg bid for next 2 days measured after 48 hrs by high-performance liquid chromatography-tandem mass spectrometry; format: ADME, organism-based; parameters: dose 150 mg, time infinity, route oral; conditions: in vivo
[4] = AUC in healthy human plasma at 400 mg, po bid for 2 weeks; format: ADME, organism-based
[5] = test system: Homo sapiens; experiment: Tmax in healthy human plasma assessed as Tmax in healthy human plasma assessed as (S,S)-hydroxybupropion level at 150 mg, po co-treated with ritonavir 200 mg tid for 1 day, 300 mg bid for next 6 days, 400 mg bid upto 17 day of study measured after 48 hrs by high-performance liquid chromatography-tandem mass spectrometry; format: ADME, organism-based; conditions: in vivo
[6] = test system: Homo sapiens; experiment: AUC (0 to infinity) in healthy human plasma assessed as hydroxybupropion level at 150 mg, po co-treated with ritonavir 200 mg tid for 1 day, 300 mg bid for next 6 days, 400 mg bid upto 17 day of study measured after 48 hrs; format: ADME, organism-based; parameters: dose 150 mg, route oral, time infinity; conditions: in vivo
[7] = test system: Homo sapiens; experiment: Tmax in healthy human plasma assessed as hydroxybupropion level at 150 mg, po co-treated with ritonavir 200 mg tid for 1 day, 300 mg bid for next 2 days measured after 48 hrs; format: ADME, organism-based; conditions: in vivo
[8] = test system: Homo sapiens; experiment: Apparent renal clearance in human assessed as (R,R)-Hydroxybupropion at 150 mg, po co-treated with ritonavir 200 mg tid for 1 day, 300 mg bid for next 6 days, 400 mg bid upto 17 day of study using 0-48 hrs urine sample by high-performance liquid chromatography-tandem mass spectrometry; format: ADME, organism-based; conditions: in vivo
[9] = Apparent renal clearance in human at 150 mg, po co-treated with ritonavir 200 mg tid for 1 day, 300 mg bid for next 2 days using 0-48 hrs urine sample; format: ADME, organism-based; conditions: read-out: CL_renal
[10] = clinical; conditions: human, plasma, po
[11] = test system: Homo sapiens; experiment: Apparent renal clearance in human assessed as (R,R)-Hydroxybupropion at 150 mg, po co-treated with ritonavir 200 mg tid for 1 day, 300 mg bid for next 2 days using 0-48 hrs urine sample by high-performance liquid chromatography-tandem mass spectrometry; format: ADME, organism-based; conditions: in vivo
[12] = test system: Homo sapiens; experiment: Apparent renal clearance in human assessed as Hydroxybupropion at 150 mg, po co-treated with ritonavir 200 mg tid for 1 day, 300 mg bid for next 6 days, 400 mg bid upto 17 day of study using 0-48 hrs urine sample; format: ADME, organism-based; conditions: in vivo
[13] = test system: Homo sapiens; experiment: AUC (0 to infinity) in healthy human plasma assessed as (R,R)-hydroxybupropion level at 150 mg, po co-treated with ritonavir 200 mg tid for 1 day, 300 mg bid for next 2 days measured after 48 hrs by high-performance liquid chromatography-tandem mass spectrometry; format: ADME, organism-based; parameters: dose 150 mg, time infinity, route oral; conditions: in vivo
[14] = test system: Homo sapiens; experiment: AUC (0 to 72) in healthy human plasma assessed as (R,R)-hydroxybupropion level at 150 mg, po co-treated with ritonavir 200 mg tid for 1 day, 300 mg bid for next 6 days, 400 mg bid upto 17 day of study measured after 48 hrs by high-performance liquid chromatography-tandem mass spectrometry; format: ADME, organism-based; parameters: dose 150 mg, time < 72 hr, route oral; conditions: in vivo, 72 h
[15] = test system: Homo sapiens; experiment: Apparent renal clearance in human assessed as Hydroxybupropion at 150 mg, po co-treated with ritonavir 200 mg tid for 1 day, 300 mg bid for next 2 days using 0-48 hrs urine sample; format: ADME, organism-based; conditions: in vivo
[16] = AUC (0 to infinity) in healthy human plasma at 150 mg, po co-treated with ritonavir 200 mg tid for 1 day, 300 mg bid for next 6 days, 400 mg bid upto 17 day of study measured after 48 hrs; format: ADME, organism-based; parameters: dose 150 mg, time infinity, route oral
[17] = Apparent clearance with respect to oral bioavailability in human at 150 mg, po co-treated with ritonavir 200 mg tid for 1 day, 300 mg bid for next 6 days, 400 mg bid upto 17 day of study measured after 48 hrs; format: ADME, organism-based; conditions: in vivo
[18] = AUC in healthy human plasma at 100 mg, po bid for 2 weeks; format: ADME, organism-based
[19] = clinical; conditions: human, plasma, po; remark: listed apart in the source
[20] = test system: Homo sapiens; experiment: Tmax in healthy human plasma assessed as (R,R)-hydroxybupropion level at 150 mg, po co-treated with ritonavir 200 mg tid for 1 day, 300 mg bid for next 6 days, 400 mg bid upto 17 day of study measured after 48 hrs by high-performance liquid chromatography-tandem mass spectrometry; format: ADME, organism-based; conditions: in vivo
[21] = test system: Homo sapiens; experiment: AUC (0 to 72) in healthy human plasma assessed as (S,S)-hydroxybupropion level at 150 mg, po co-treated with ritonavir 200 mg tid for 1 day, 300 mg bid for next 6 days, 400 mg bid upto 17 day of study measured after 48 hrs by high-performance liquid chromatography-tandem mass spectrometry; format: ADME, organism-based; parameters: dose 150 mg, time < 72 hr, route oral; conditions: in vivo, 72 h
[22] = test system: Homo sapiens; experiment: Tmax in healthy human plasma assessed as (R,R)-hydroxybupropion level at 150 mg, po co-treated with ritonavir 200 mg tid for 1 day, 300 mg bid for next 2 days measured after 48 hrs by high-performance liquid chromatography-tandem mass spectrometry; format: ADME, organism-based; conditions: in vivo
[23] = Apparent renal clearance in human at 150 mg, po co-treated with ritonavir 200 mg tid for 1 day, 300 mg bid for next 6 days, 400 mg bid upto 17 day of study using 0-48 hrs urine sample; format: ADME, organism-based; conditions: read-out: CL_renal
[24] = clinical; conditions: human, plasma, po; remark: listed apart in the source
[25] = test system: Homo sapiens; experiment: AUC (0 to 72) in healthy human plasma assessed as (S,S)-hydroxybupropion level at 150 mg, po co-treated with ritonavir 200 mg tid for 1 day, 300 mg bid for next 2 days measured after 48 hrs by high-performance liquid chromatography-tandem mass spectrometry; format: ADME, organism-based; parameters: dose 150 mg, time < 72 hr, route oral; conditions: in vivo, 72 h
[26] = test system: Homo sapiens; experiment: AUC (0 to 72) in healthy human plasma assessed as (R,R)-hydroxybupropion level at 150 mg, po co-treated with ritonavir 200 mg tid for 1 day, 300 mg bid for next 2 days measured after 48 hrs by high-performance liquid chromatography-tandem mass spectrometry; format: ADME, organism-based; parameters: time < 72 hr, dose 150 mg, route oral; conditions: in vivo, 72 h
[27] = test system: Homo sapiens; experiment: Apparent renal clearance in human assessed as (S,S)-Hydroxybupropion at 150 mg, po co-treated with ritonavir 200 mg tid for 1 day, 300 mg bid for next 2 days using 0-48 hrs urine sample by high-performance liquid chromatography-tandem mass spectrometry; format: ADME, organism-based; conditions: in vivo
[28] = test system: Homo sapiens; experiment: Apparent renal clearance in human assessed as (S,S)-Hydroxybupropion at 150 mg, po co-treated with ritonavir 200 mg tid for 1 day, 300 mg bid for next 6 days, 400 mg bid upto 17 day of study using 0-48 hrs urine sample by high-performance liquid chromatography-tandem mass spectrometry; format: ADME, organism-based; conditions: in vivo
[29] = test system: Homo sapiens; experiment: Tmax in healthy human plasma assessed as hydroxybupropion level at 150 mg, po co-treated with ritonavir 200 mg tid for 1 day, 300 mg bid for next 6 days, 400 mg bid upto 17 day of study measured after 48 hrs; format: ADME, organism-based; conditions: in vivo
[30] = clinical; conditions: human, plasma, po; remark: listed apart in the source
[31] = test system: Homo sapiens; experiment: AUC (0 to 72) in healthy human plasma assessed as hydroxybupropion level at 150 mg, po co-treated with ritonavir 200 mg tid for 1 day, 300 mg bid for next 6 days, 400 mg bid upto 17 day of study measured after 48 hrs; format: ADME, organism-based; parameters: dose 150 mg, time < 72 hr, route oral; conditions: in vivo, 72 h
[32] = test system: Homo sapiens; experiment: AUC (0 to infinity) in healthy human plasma assessed as (S,S)-hydroxybupropion level at 150 mg, po co-treated with ritonavir 200 mg tid for 1 day, 300 mg bid for next 6 days, 400 mg bid upto 17 day of study measured after 48 hrs by high-performance liquid chromatography-tandem mass spectrometry; format: ADME, organism-based; parameters: dose 150 mg, time infinity, route oral; conditions: in vivo
[33] = test system: Homo sapiens; experiment: AUC (0 to infinity) in healthy human plasma assessed as (R,R)-hydroxybupropion level at 150 mg, po co-treated with ritonavir 200 mg tid for 1 day, 300 mg bid for next 6 days, 400 mg bid upto 17 day of study measured after 48 hrs by high-performance liquid chromatography-tandem mass spectrometry; format: ADME, organism-based; parameters: dose 150 mg, time infinity, route oral; conditions: in vivo
[34] = test system: Homo sapiens; experiment: AUC (0 to 72) in healthy human plasma assessed as hydroxybupropion level at 150 mg, po co-treated with ritonavir 200 mg tid for 1 day, 300 mg bid for next 2 days measured after 48 hrs; format: ADME, organism-based; parameters: time < 72 hr, dose 150 mg, route oral; conditions: in vivo, 72 h
[35] = AUC (0 to infinity) in healthy human plasma at 150 mg, po co-treated with ritonavir 200 mg tid for 1 day, 300 mg bid for next 2 days measured after 48 hrs; format: ADME, organism-based; parameters: dose 150 mg, route oral, time infinity
[36] = test system: Homo sapiens; experiment: Tmax in healthy human plasma assessed as (S,S)-hydroxybupropion level at 150 mg, po co-treated with ritonavir 200 mg tid for 1 day, 300 mg bid for next 2 days measured after 48 hrs by high-performance liquid chromatography-tandem mass spectrometry; format: ADME, organism-based; conditions: in vivo

Compound: CC(NC(C)(C)C)C(=O)c1cccc(Cl)c1 (racemic) [BUPROPION]
- AUC [1]: 11330 ng·h/mL
- CL/F [2]: 2470 mL/min
- AUC [3]: 404 ng·h/mL
- AUC at 336 h [4]: 57 ng·h/mL
- Tmax [5]: 1.5 h
- AUC [6]: 7560 ng·h/mL
- Tmax [7]: 3.6 h
- CL_renal [8]: 217 mL/min
- CL renal [9]: 20 mL/min
- Cmax [10]: 267 ng/mL
- CL_renal [11]: 172 mL/min
- CL_renal [12]: 183 mL/min
- AUC [13]: 10950 ng·h/mL
- AUC [14]: 5829 ng·h/mL
- CL_renal [15]: 143 mL/min
- AUC(0-inf) [16]: 1030 ng·h/mL
- CL/F [17]: 3240 mL/min
- AUC at 336 h [18]: 50 ng·h/mL
- half-life [19]: 1070 min
- Tmax [20]: 3.5 h
- AUC [21]: 274 ng·h/mL
- Tmax [22]: 3.8 h
- CL renal [23]: 21 mL/min
- half-life [24]: 1010 min
- AUC [25]: 356 ng·h/mL
- AUC [26]: 8120 ng·h/mL
- CL_renal [27]: 96 mL/min
- CL_renal [28]: 134 mL/min
- Tmax [29]: 3.4 h
- Cmax [30]: 345 ng/mL
- AUC [31]: 6100 ng·h/mL
- AUC [32]: 303 ng·h/mL
- AUC [33]: 7330 ng·h/mL
- AUC [34]: 8470 ng·h/mL
- AUC(0-inf) [35]: 1290 ng·h/mL
- Tmax [36]: 1.7 h

From ChEMBL document CHEMBL1255313 (Antimicrob Agents Chemother, 2008)
